Measured values from ChEMBL document CHEMBL5365497, “Developing Novel Coumarin-Containing Azoles Antifungal Agents by the Scaffold Merging Strategy for Treating Azole-Resistant Candidiasis” (J Med Chem, 2023).
≈ marks a conversion by molar mass, not a printed value. Calls of active or inactive are those of the source. No cut-off for these calls is given here.

What was measured:
Candida albicans [1] = assay: Antifungal activity against fluconazole-resistant Candida albicans 904 assessed as reduction in […] cell count at 16 times MIC incubated for 24 hrs by time-kill assay (reference value: 4 log10CFU/mL); assay type: functional
Candida albicans [2] = assay: Induction of ROS production in fluconazole-resistant Candida albicans 904 at 64 ug/ml incubated for 30 mins by fluorescence microscopy; assay type: functional, organism-based; settings: dose 64.0 µg/ml
[3] = Subacute toxicity in KM mouse assessed as mortality at 100 mg/kg administered via gavage daily for 14 days; assay type: organism-based; settings: in vivo, po, 336 h, time 14 day
[4] = Acute toxicity in fasted KM mouse assessed as body weight change at 1000 mg/kg administered via gavage measured for 7 days; assay type: organism-based; settings: in vivo, po, 168 h, time 7 day
Candida albicans [5] = assay: Antifungal activity against fluconazole-resistant Candida albicans 904 infected in ICR mouse assessed as reduction in fungal kidney burden by measuring CFU administered intraperitoneally measured after 5 days; assay type: functional, organism-based; settings: dose 0.6 mg/kg, route ip, time 5.0 day
[6] = molecular target: Lanosterol 14-alpha demethylase (Candida albicans (strain SC5314 / ATCC MYA-2876) (Yeast), UniProt P10613); assay: Inhibition of CYP51 in Candida albicans SC5314 assessed as increase in obtusifoliol level at 0.03125 ug/ml incubated for 24 hrs by GC-MS analysis; settings: at 0.03125 µg/mL
Candida albicans [7] = assay: Antifungal activity against Candida albicans CPCC400616 assessed as reduction in ALS3 expression at 2 ug/ml incubated for 12 hrs by RT-PCR analysis; assay type: functional, organism-based; settings: dose 2.0 µg/ml
Cytochrome P450 2D6 = Cytochrome P450 2D6 (Homo sapiens, UniProt P10635); assay: Inhibition of CYP2D6 in human liver microsomes using dextromethorphan as substrate preincubated for 5 mins followed by NADPH addition by LC-MS/MS analysis; assay type: ADME, Microsome
Candida albicans [8] = assay: Antifungal activity against fluconazole-resistant Candida albicans 904 assessed as reduction in EFG1 expression at 16 ug/ml incubated for 12 hrs by RT-PCR analysis; assay type: functional, organism-based; settings: dose 16.0 µg/ml
Candida albicans [9] = assay: Antifungal activity against fluconazole-resistant Candida albicans 904 assessed as reduction in TEC1 expression at 16 ug/ml incubated for 12 hrs by RT-PCR analysis; assay type: functional, organism-based; settings: dose 16.0 µg/ml
Candida albicans [10] = assay: Antifungal activity against Candida albicans SC5314 assessed as destruction of cell wall at 16 ug/ml incubated for 24 hrs by TEM analysis; assay type: functional, organism-based; settings: dose 16.0 µg/ml
Candida albicans [11] = assay: Antifungal activity against Candida albicans SC5314 assessed as leakage of endogenous material within cells at 16 ug/ml incubated for 24 hrs by TEM analysis; assay type: functional, organism-based; settings: dose 16.0 µg/ml
Pichia kudriavzevii = assay: Antifungal activity against Pichia kudriavzevii assessed as fungal growth inhibition by CLSI based microdilution method; assay type: functional
[12] = Subacute toxicity in male KM mouse assessed as kidney damage at 100 mg/kg administered via gavage daily for 14 days; assay type: organism-based; settings: in vivo, po, 336 h, time 14 day
[13] = Subacute toxicity in KM mouse assessed as liver damage at 100 mg/kg administered via gavage daily for 7 days; assay type: organism-based; settings: in vivo, po, 168 h, time 7 day
Candida albicans [14] = assay: Antifungal activity against Candida albicans SC5314 assessed as fungal growth inhibition by CLSI based microdilution method; assay type: functional
Nakaseomyces glabratus = assay: Antifungal activity against Candida glabrata assessed as fungal growth inhibition by CLSI based microdilution method; assay type: functional
Cytochrome P450 2C19 = Cytochrome P450 2C19 (Homo sapiens, UniProt P33261); assay: Inhibition of CYP2C19 in human liver microsomes using […] as substrate preincubated for 5 mins followed by NADPH addition by LC-MS/MS analysis; assay type: ADME, Microsome
[15] = Subacute toxicity in KM mouse assessed as liver inflammation at 100 mg/kg administered via gavage daily for 7 days; assay type: organism-based; settings: in vivo, po, 168 h, time 7 day
Candida albicans [16] = assay: Antifungal activity against fluconazole-resistant Candida albicans CaR assessed as fungal growth inhibition by CLSI based microdilution method; assay type: functional
Candida albicans [17] = assay: Antifungal activity against fluconazole-resistant Candida albicans 904 assessed as decrease in CDR1 expression at 16 ug/ml measured after 16 hrs by RT-PCR analysis; assay type: functional, organism-based; settings: dose 16.0 µg/ml
Cytochrome P450 1A2 = molecular target: T1, Cytochrome P450 1A2 (Homo sapiens, UniProt P05177); assay: Inhibition of CYP1A2 in human liver microsomes using phenacetin as substrate preincubated for 5 mins followed by NADPH addition by LC-MS/MS analysis; assay type: ADME, Microsome
T1 sequence (P05177 whole entry): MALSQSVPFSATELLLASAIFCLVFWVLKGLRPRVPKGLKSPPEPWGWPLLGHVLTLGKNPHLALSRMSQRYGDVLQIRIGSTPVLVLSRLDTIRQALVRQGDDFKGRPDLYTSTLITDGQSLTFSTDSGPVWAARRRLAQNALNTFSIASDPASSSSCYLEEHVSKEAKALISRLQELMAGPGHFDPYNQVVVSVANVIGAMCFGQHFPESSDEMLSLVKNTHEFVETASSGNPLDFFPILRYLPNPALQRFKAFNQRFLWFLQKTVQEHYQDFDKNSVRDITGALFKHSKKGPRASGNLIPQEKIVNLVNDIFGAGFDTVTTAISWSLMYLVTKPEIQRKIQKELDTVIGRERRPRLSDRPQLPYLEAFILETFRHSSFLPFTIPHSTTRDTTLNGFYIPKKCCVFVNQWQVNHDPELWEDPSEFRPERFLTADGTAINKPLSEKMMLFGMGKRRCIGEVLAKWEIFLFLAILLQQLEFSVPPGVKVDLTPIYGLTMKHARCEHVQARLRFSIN

Candida albicans [18] = assay: Antifungal activity against fluconazole-resistant Candida albicans 904 assessed as inhibition of yeast to hypha morphological transition at 16 ug/ml incubated for 4 hrs by inverted microscopy; assay type: functional, organism-based; settings: dose 16.0 µg/ml
Candida albicans [19] = assay: Antifungal activity against Candida albicans SC5314 infected in ICR mouse assessed as reduction in fungal kidney burden by measuring CFU at 0.6 mg/kg, ip measured after 5 days; assay type: functional, organism-based; settings: time 5.0 day
Candida albicans [20] = assay: Antifungal activity against fluconazole-resistant Candida albicans 17# assessed as fungal growth inhibition by CLSI based microdilution method; assay type: functional
[21] = Stability in mouse plasma assessed as compound remaining at 1 uM measured for 180 mins by LC-MS/MS analysis; assay type: ADME, cell-free; settings: read-out: Stability
Candida albicans [22] = assay: Antifungal activity against fluconazole-resistant Candida albicans 904 assessed as decrease in CDR2 expression at 16 ug/ml measured after 16 hrs by RT-PCR analysis; assay type: functional, organism-based; settings: dose 16.0 µg/ml
[23] = Cytotoxicity against human MRC5 cells assessed as cell growth inhibition by MTT assay; assay type: toxicity, cell-based
Candida albicans [24] = assay: Antifungal activity against Candida albicans CPCC400616 assessed as fungal growth inhibition by CLSI based microdilution method; assay type: functional
Candida albicans [25] = assay: Antifungal activity against fluconazole-resistant Candida albicans 904 assessed as decrease in MDR1 expression at 16 ug/ml measured after 16 hrs by RT-PCR analysis; assay type: functional, organism-based; settings: dose 16.0 µg/ml
Candida albicans [26] = assay: Antifungal activity against Candida albicans CPCC400616 assessed as reduction in CPH1 expression at 2 ug/ml incubated for 12 hrs by RT-PCR analysis; assay type: functional, organism-based; settings: dose 2.0 µg/ml
Candida albicans [27] = assay: Antifungal activity against Candida albicans SC5314 assessed as destruction of cell membrane at 16 ug/ml incubated for 24 hrs by TEM analysis; assay type: functional, organism-based; settings: dose 16.0 µg/ml
Candida albicans [28] = assay: Antifungal activity against Candida albicans CPCC400616 assessed as reduction in TEC1 expression at 2 ug/ml incubated for 12 hrs by RT-PCR analysis; assay type: functional, organism-based; settings: dose 2.0 µg/ml

Cytochrome P450 2D6, sequence (P10635 whole entry): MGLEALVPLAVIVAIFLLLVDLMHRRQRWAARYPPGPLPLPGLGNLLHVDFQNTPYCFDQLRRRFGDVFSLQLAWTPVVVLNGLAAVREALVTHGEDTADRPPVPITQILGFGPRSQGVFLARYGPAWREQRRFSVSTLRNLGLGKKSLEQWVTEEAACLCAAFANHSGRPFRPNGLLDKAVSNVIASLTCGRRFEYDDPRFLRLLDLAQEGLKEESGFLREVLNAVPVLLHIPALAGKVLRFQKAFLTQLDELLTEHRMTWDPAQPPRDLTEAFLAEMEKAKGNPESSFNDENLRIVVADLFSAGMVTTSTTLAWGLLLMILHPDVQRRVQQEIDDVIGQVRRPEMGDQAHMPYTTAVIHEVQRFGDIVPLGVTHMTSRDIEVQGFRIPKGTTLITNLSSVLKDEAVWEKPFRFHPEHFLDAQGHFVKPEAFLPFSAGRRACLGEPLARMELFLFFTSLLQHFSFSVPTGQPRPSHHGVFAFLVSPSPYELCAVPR
Lanosterol 14-alpha demethylase, sequence (P10613 whole entry): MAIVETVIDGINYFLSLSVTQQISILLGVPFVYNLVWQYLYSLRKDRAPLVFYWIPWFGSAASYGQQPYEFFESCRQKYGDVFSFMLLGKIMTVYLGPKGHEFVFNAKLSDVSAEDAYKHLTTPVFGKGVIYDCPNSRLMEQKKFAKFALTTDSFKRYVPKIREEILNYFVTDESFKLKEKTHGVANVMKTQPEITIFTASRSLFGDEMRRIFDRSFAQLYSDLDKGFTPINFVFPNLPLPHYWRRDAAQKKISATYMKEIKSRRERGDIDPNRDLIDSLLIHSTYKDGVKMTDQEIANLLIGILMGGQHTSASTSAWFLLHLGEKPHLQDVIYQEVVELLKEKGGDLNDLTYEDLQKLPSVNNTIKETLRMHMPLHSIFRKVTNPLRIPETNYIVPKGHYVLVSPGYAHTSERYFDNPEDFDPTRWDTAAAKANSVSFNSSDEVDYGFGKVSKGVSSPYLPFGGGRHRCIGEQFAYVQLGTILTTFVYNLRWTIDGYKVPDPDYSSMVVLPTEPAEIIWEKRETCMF
Cytochrome P450 2C19, sequence (P33261 whole entry): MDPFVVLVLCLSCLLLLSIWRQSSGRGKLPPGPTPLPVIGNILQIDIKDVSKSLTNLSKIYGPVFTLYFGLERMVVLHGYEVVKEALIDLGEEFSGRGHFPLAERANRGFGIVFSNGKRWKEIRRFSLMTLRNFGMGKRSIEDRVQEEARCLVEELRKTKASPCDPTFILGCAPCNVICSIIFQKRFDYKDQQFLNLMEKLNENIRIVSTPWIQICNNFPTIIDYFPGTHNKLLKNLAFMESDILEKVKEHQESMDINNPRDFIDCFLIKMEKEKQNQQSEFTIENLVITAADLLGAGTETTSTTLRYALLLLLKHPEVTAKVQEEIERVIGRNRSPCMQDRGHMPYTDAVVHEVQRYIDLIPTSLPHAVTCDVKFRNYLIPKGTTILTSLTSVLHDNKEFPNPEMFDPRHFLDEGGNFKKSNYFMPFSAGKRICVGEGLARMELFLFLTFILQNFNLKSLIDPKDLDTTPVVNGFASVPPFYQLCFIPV

O=c1ccc2ccc(COC(Cn3ccnc3)c3ccc(Cl)cc3Cl)cc2o1 (stereo not drawn)
Activity (Candida albicans [1]): 2 log10CFU/ml | Activity (Candida albicans [2]): Active | Activity [3]: Non-Toxic | Activity [4]: Non-Toxic | Activity (Candida albicans [5]): Dose-Dependent Effect | inhibition (INH) [6]: Active | Activity (Candida albicans [7]): Active | IC50 (Cytochrome P450 2D6): 1.14 µM | Activity (Candida albicans [8]): Active | Activity (Candida albicans [9]): Active | Activity (Candida albicans [10]): Active | Activity (Candida albicans [11]): Active | MIC (Pichia kudriavzevii): 2 µg/mL (≈ 4.82 µM) | Activity [12]: Toxic | Activity [13]: Toxic | MIC (Candida albicans [14]): 0.03 µg/mL (≈ 0.0722 µM) | MIC (Nakaseomyces glabratus): 0.5 µg/mL (≈ 1.2 µM) | IC50 (Cytochrome P450 2C19): 0.227 µM | Activity [15]: Toxic | MIC (Candida albicans [16]): 1 µg/mL (≈ 2.41 µM) | Activity (Candida albicans [17]): Active | IC50 (Cytochrome P450 1A2): 6.01 µM | inhibition (Candida albicans [18]): Active | Activity (Candida albicans [19]): Active | MIC (Candida albicans [20]): 4 µg/mL (≈ 9.63 µM) | remaining at 3 h, 1 µM [21]: 103% | Activity (Candida albicans [22]): Active | IC50 [23]: 24.4 µM | MIC (Candida albicans [24]): 0.06 µg/mL (≈ 0.144 µM) | Activity (Candida albicans [25]): Active | Activity (Candida albicans [26]): Active | Activity (Candida albicans [27]): Active | Activity (Candida albicans [28]): Active
